Data from EP3909969A1, “PEPTIDE FOR HYDROGEL FORMATION” (Freie Universität Berlin, priority 2020, dated 2021).

Test system: NIH/3T3 embryonic mouse fibroblast cells
Test: Cytotoxicity assay of hydrogel cultured cells by Cell Counting Kit-8 (CCK-8)
Format: cell-based
Settings: hydrogel at 0.3 wt%, after 24 h, NIH/3T3 cells
Method: NIH/3T3 embryonic mouse fibroblast cells were cultured in DMEM culture medium (Lonza, 4,5 g/L glucose, 10 % FCS, 1 % penicillin/streptomycin) in a humidified incubator (5 % CO2, 37°C). The cells were grown in 175 cm^2 cell culture flaks and medium was changed thrice a week. Upon confluency of 70 % - 80 % the culture was subcultured according to the detected cell number.
To determine whether different peptide hydrogel compositions would be tolerated by the cells CCK-8 was used to conduct viability of cells during a 3 days cell culture. A suspension of NIH/3T3 cells in DMEM (4.5 g/L, 10 % FCS, 1 % penicillin/streptomycin) was seeded in a transparent 96-well plate with a density of 10.000 cells in an overall volume of 100 µL per well containing the respecting hydrogels. 10 µL of 1 % (w/v) SDS was added to the respective wells of positive control and the plate was further incubated for 24 h and 72 h at 37°C and 5 % CO2 respectively. After each time points 10 µL of CCK-8 solution were added to each well and allowed to incubate for 2 h in a humidified incubator at 37°C. During this time dehydrogenases in viable cells reduces WST-8 tetrazolium to formazan, which will be detected by measuring the absorbance at 450 nm. Absorbance was measured by using a Tecan Infinite 200 Pro microplate reader. Three experiments were performed in triplicates per hydrogel candidate (n=3). […]

CC(C)C[C@H](NC(=O)[C@H](CCC(=O)O)NC(=O)[C@H](CCCCN)NC(=O)[C@H](CCCCN)NC(=O)[C@H](CC(C)C)NC(=O)[C@H](C)NC(=O)[C@H](C)NC(=O)[C@H](CC(C)C)NC(=O)[C@H](CCC(=O)O)NC(=O)[C@H](CCCCN)NC(=O)[C@H](CCCCN)NC(=O)[C@H](CC(C)C)NC(=O)[C@H](C)NC(=O)[C@H](C)NC(=O)[C@H](CC(C)C)NC(=O)[C@H](CCC(=O)O)NC(=O)[C@H](CCCCN)NC(=O)[C@H](CCCCN)NC(=O)[C@H](CC(C)C)NC(=O)[C@H](C)NC(=O)[C@H](C)NC(=O)[C@H](CC(C)C)NC(=O)[C@H](CCC(=O)O)NC(=O)[C@H](CCCCN)NC(=O)[C@H](CCCCN)NC(=O)[C@H](CC(C)C)NC(=O)c1ccccc1N)C(=O)O [hFF03]
viability compared to the control: higher than 160%
